Test results as given in patent US20100209536A1, “Methods and Kits for Use in the Treatment and Prevention of Diseases or Conditions of the Immune System or Infectious Diseases” (The Brigham and Women's Hospital, Inc., priority 2006, published 2010).

Assays:
Type in all cases: in vivo, human
[1] = system: severe asthma exacerbations in childhood asthmatics; assay: Childhood Asthma Management Program: baseline serum 25(OH)D and outcomes in childhood asthmatics on inhaled corticosteroid
Description: We measured 25(OH)D levels in stored serum (collected on entry into the trial) from 305 childhood asthmatics who were randomized to the inhaled corticosteroid arm of the multi-center Childhood Asthma Management Program. We then analyzed baseline 25(OH)D levels for their association with severe asthma exacerbations (defined as emergency room visits or hospitalizations for asthma) over the course of the 4-year trial.

[2] = system: respiratory infections in the 2-year old children; assay: Project Viva antioxidant study: maternal intake and respiratory infections in 2-year old children
Description: (§1) Study subjects were enrolled in Project Viva, as described above. Recruitment and retention procedures have previously been published (Gillman et al., J. Pediatr. 144:240-245, 2004). We obtained information directly from participants and from medical records as detailed previously (Rifas-Shiman, Paediatr. Perinat. Epidemiol. 20:35-42, 2006). Data collected from interviews and questionnaires included demographics (infant gender, maternal marital status, and race), socioeconomic status (education and household income), and reproductive history (maternal gravidity, pre-pregnancy height and body mass index, and smoking). Questionnaires that inquired about infant health, feeding, and the home environment were administered when the child was 6 months, 1 year, and 2 years of age. Among 2,128 delivered infants in Project Viva, we excluded 228 participants because of missing first and second trimester diet assessment data and an additional 37 participants with a gestation of less than 34 completed weeks.
We assessed maternal diet using semi-quantitative food-frequency questionnaires (FFQ) validated for use during pregnancy (Fawzi et al., Ann. Epidemiol. 14:754-762, 2004), and used in several of our previous studies of maternal diet and offspring outcomes (Oken et al., Am. J. Epidemiol. 160:774-783, 2004; Huh et al., Int. J. Epidemiol. 34:378-384, 2005; Gillman et al., Circulation 110:1990-1995, 2004). As noted above, the FFQ used at the 1st visit reflected intakes in the 1st trimester; the time referent was “during this pregnancy,” that is from the date of the last menstrual period until the assessment, at an average of about 10 weeks gestation. […] Also as noted above, the FFQ used at the 2nd visit (26 to 28 weeks of gestation) reflected intakes during the 2nd trimester; the time referent was “during the past 3 months.” The 2nd trimester instrument was the same as that for the 1st trimester except that we assessed use of vitamins/supplements as part of the self-completed FFQ. […]

[3] = system: any wheeze in the first 2 yrs; assay: Project Viva antioxidant study: maternal intake and any wheeze in the first 2 yrs; conditions: for Any wheeze in the first 2 yrs, Univariate Model OR (95% CI) / Any wheeze in the first 2 yrs, Multivariable Model OR (95% CI): including supplements; for Any Wheeze, Foods Only OR / Any Wheeze, Supplements Only OR: univariate; for Any Wheeze, Foods Only OR: intake from foods only; for Any Wheeze, Supplements Only OR: intake from supplements only; for Association of total maternal intake with any wheeze in univariable models: total intakes
Description: as §1
(§2) We assessed maternal diet using semi-quantitative food-frequency questionnaires (FFQ) validated for use during pregnancy (Fawzi et al., Ann. Epidemiol. 14:754-762, 2004), and used in several of our previous studies of maternal diet and offspring outcomes (Oken et al., Am. J. Epidemiol. 160:774-783, 2004; Huh et al., Int. J. Epidemiol. 34:378-384, 2005; Gillman et al., Circulation 110:1990-1995, 2004). As noted above, the FFQ used at the 1st visit reflected intakes in the 1st trimester; the time referent was “during this pregnancy,” that is from the date of the last menstrual period until the assessment, at an average of about 10 weeks gestation. To assess vitamin and supplement intake during the 1st trimester, we administered a separate interview that queried dose, duration, and brand/type of multivitamin, prescribed prenatal vitamins, and supplements. Also as noted above, the FFQ used at the 2nd visit (26 to 28 weeks of gestation) reflected intakes during the 2nd trimester; the time referent was “during the past 3 months.” The 2nd trimester instrument was the same as that for the 1st trimester except that we assessed use of vitamins/supplements as part of the self-completed FFQ.
(§3) To calculate intake of nutrients, we again used the Harvard nutrient composition database, which contains food composition values from the U.S. Department of Agriculture, supplemented by other data sources (U.S. Department of Agriculture ARS. USDA National Nutrient Database for Standard Reference, Release 14, 5R14; 2001). All nutrients were adjusted for total energy intake using the nutrient residuals method (Willett, Am. J. Clin. Nutr. 45:354-360, 1987). Mean nutrient intakes from the 1st and 2nd trimesters were used as the exposure in the analyses. If a participant only completed one FFQ, then nutrients calculated from that questionnaire were taken as the exposure of interest. One thousand one hundred and thirty-five (88.0%) of the 1,290 participants completed both FFQs, 96 (7.4%) completed the first trimester FFQ only, and 59 (4.6%) completed the second trimester FFQ only.
(§4) We ascertained the wheeze outcomes from questions from the First Year and Second Year Questionnaires: “since your child was born/since your child was […], has he/she ever had wheezing (or whistiling in the chest)?” “Any wheeze” was defined as a positive response to the question at either the first or second year questionnaire. “Recurrent wheeze” was defined as positive responses to the questions in both the first and second year questionnaires. […] “Respiratory infections” was defined as positive responses to one of three questions: “since your child was born/12 months old, have you been told by a health care professional (such as a doctor, physician assistant, or nurse practitioner) that your child has: (a) bronchiolitis; (b) pneumonia; (c) bronchitis, croup, or any other respiratory infection?” on either the first or second year questionnaires. […]

[4] = system: recurrent wheeze in the first 2 yrs; assay: Project Viva antioxidant study: maternal intake and recurrent wheeze in the first 2 yrs; conditions: for Recurrent wheeze in the first 2 yrs, Multivariable Model OR (95% CI) / Recurrent wheeze in the first 2 yrs, Univariate Model OR (95% CI): including supplements; for Recurrent Wheeze, Foods Only OR / Recurrent Wheeze, Supplements Only OR: univariate; for Recurrent Wheeze, Foods Only OR: intake from foods only; for Recurrent Wheeze, Supplements Only OR: intake from supplements only
Description: as §1, §2, §3, §4

[5] = 2nd vs 1st (lowest) quartile of maternal intake, calorie adjusted, n = 1,161
[6] = 2nd vs 1st (lowest) quartile of maternal intake
[7] = 3rd vs 1st (lowest) quartile of maternal intake
[8] = 4th (highest) vs 1st (lowest) quartile of maternal intake
[9] = 4th (highest) vs 1st (lowest) quartile of maternal intake, listed as zinc
[10] = 4th (highest) vs 1st (lowest) quartile
[11] = 2nd vs 1st (lowest) quartile of maternal intake, n = 1,038
[12] = 4th (highest) vs 1st (lowest) quartile of maternal intake, listed as vitamin E

Row | Compound | Association of total maternal intake with respiratory infections in the children [2] | Any wheeze in the first 2 yrs, Univariate Model OR (95% CI) [3, 5] | Any wheeze in the first 2 yrs, Multivariable Model OR (95% CI) [3, 6] | Any Wheeze, Foods Only OR ([3]; 2nd vs 1st (lowest) quartile) | Any Wheeze, Supplements Only OR ([3]; 2nd vs 1st (lowest) quartile) | Any wheeze in the first 2 yrs, Multivariable Model OR (95% CI) [3, 7] | Any wheeze in the first 2 yrs, Univariate Model OR (95% CI) [3, 7] | Any Wheeze, Foods Only OR ([3]; 3rd vs 1st (lowest) quartile) | Any Wheeze, Supplements Only OR ([3]; 3rd vs 1st (lowest) quartile) | Any wheeze in the first 2 yrs, Multivariable Model OR (95% CI) [3, 8] | Any wheeze in the first 2 yrs, Univariate Model OR (95% CI) [3, 8] | Any Wheeze, Foods Only OR [3, 10] | Any Wheeze, Supplements Only OR [3, 10] | Association of total maternal intake with any wheeze in univariable models [3] | Recurrent wheeze in the first 2 yrs, Multivariable Model OR (95% CI) [4, 6] | Recurrent wheeze in the first 2 yrs, Univariate Model OR (95% CI) [4, 11] | Recurrent Wheeze, Foods Only OR ([4]; 2nd vs 1st (lowest) quartile) | Recurrent Wheeze, Supplements Only OR ([4]; 2nd vs 1st (lowest) quartile) | Recurrent wheeze in the first 2 yrs, Multivariable Model OR (95% CI) [4, 7] | Recurrent wheeze in the first 2 yrs, Univariate Model OR (95% CI) [4, 7] | other results
1 | 25-Hydroxyvitamin D [25(OH)D] |  |  |  |  |  |  |  |  |  |  |  |  |  |  |  |  |  |  |  |  | Association with lung function, bronchodilator response, or airway responsiveness ([1]; 305 childhood asthmatics on inhaled corticosteroid): no associations; OR, severe asthma exacerbations over the course of the 4-year trial ([1]; children with 25(OH)D levels ≦30 ng/ml, on inhaled corticosteroid, adjusted for age, sex, height, baseline FEV1): 1.76
2 | [Zn] [Zinc, zinc] | not associated | 0.77 (0.55, 1.08) | 0.89 (0.61, 1.29) | 0.85 | 0.98 | 0.85 (0.59, 1.24) | 0.67 (0.47, 0.94)^5 | 0.60 | 0.67 | 0.59 (0.41, 0.88)^5 | 0.49 (0.34, 0.70)^5 | 0.60 | 0.63 | associated with lower risks | 0.61 (0.35, 1.06) | 0.56 (0.34, 0.92) | 0.70 | 0.94 | 0.89 (0.53, 1.49) | 0.73 (0.46, 1.17) | Any wheeze in the first 2 yrs, Multivariable Model OR (95% CI) [3, 9]: 0.59; Recurrent Wheeze, Foods Only OR ([4]; 3rd vs 1st (lowest) quartile): 0.65; Recurrent Wheeze, Supplements Only OR ([4]; 3rd vs 1st (lowest) quartile): 0.59; Recurrent wheeze in the first 2 yrs, Multivariable Model OR (95% CI) [4, 8]: 0.49 (0.27, 0.87); Recurrent wheeze in the first 2 yrs, Univariate Model OR (95% CI) [4, 8]: 0.41 (0.24, 0.69)^5; Recurrent wheeze in the first 2 yrs, Multivariable Model OR (95% CI) [4, 9]: 0.49; Recurrent Wheeze, Foods Only OR [4, 10]: 0.68; Recurrent Wheeze, Supplements Only OR [4, 10]: 0.51
3 | vitamin E | not associated | 0.71 (0.51, 1.01) | 0.90 (0.62, 1.31) | 0.75 | 0.86 | 0.84 (0.58, 1.22) | 0.67 (0.48, 0.95)^5 | 0.67 | 0.70 | 0.70 (0.48, 1.03) | 0.52 (0.36, 0.74)^5 | 0.69 | 0.63 | associated with lower risks | 0.79 (0.47, 1.34) | 0.60 (0.37, 0.98) | 0.66 | 0.83 | 0.90 (0.54, 1.52) | 0.68 (0.43, 1.10) | Any wheeze in the first 2 yrs, Multivariable Model OR (95% CI) [3, 12]: 0.70; Recurrent Wheeze, Foods Only OR ([4]; 3rd vs 1st (lowest) quartile): 0.58; Recurrent Wheeze, Supplements Only OR ([4]; 3rd vs 1st (lowest) quartile): 0.50; Recurrent wheeze in the first 2 yrs, Multivariable Model OR (95% CI) [4, 8]: 0.49 (0.27, 0.90)^5; Recurrent wheeze in the first 2 yrs, Univariate Model OR (95% CI) [4, 8]: 0.36 (0.20, 0.62)^5; Recurrent wheeze in the first 2 yrs, Multivariable Model OR (95% CI) [4, 12]: 0.49; Recurrent Wheeze, Foods Only OR [4, 10]: 0.61; Recurrent Wheeze, Supplements Only OR [4, 10]: 0.56
